In this experiment the target is mt G12D KRas (Homo sapiens, UniProt P01116, G12D). The experiment is described as follows: Mant-GDP assay (inhibition of GTP displacing mant-GDP). The experiment is classed as binding. Conditions: for displacing mant-GDP from mt G12D KRas (in words): assay optimization, FIG. 1A.

Structures are written as SMILES.

mt G12D KRas, sequence (P01116 1-188 isoform P01116-2 G12D): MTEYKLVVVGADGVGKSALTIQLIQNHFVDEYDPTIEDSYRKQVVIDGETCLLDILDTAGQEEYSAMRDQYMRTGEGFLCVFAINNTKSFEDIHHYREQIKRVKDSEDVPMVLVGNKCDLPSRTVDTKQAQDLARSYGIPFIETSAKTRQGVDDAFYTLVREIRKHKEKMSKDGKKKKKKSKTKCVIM

Take `Nc1nc2c(ncn2[C@@H]2O[C@H](COP(=O)(O)OP(=O)(O)O)[C@@H](O)[C@H]2O)c(=O)[nH]1` [GDP]: the “displacing mant-GDP from mt G12D KRas (in words)” value is reported as “very effective”.

For orientation: IC50 means the point on the concentration scale where inhibition reaches its midpoint. For the compound `Nc1nc2c(ncn2[C@@H]2O[C@H](COP(=O)(O)OP(=O)(O)OP(=O)(O)O)[C@@H](O)[C@H]2O)c(=O)[nH]1` [GTP], the “displacing mant-GDP from mt G12D KRas (in words)” value is “very effective”. For the same compound, where the note is “GTP titration in the absence of compounds, FIG. 3C, read-out: IC50 of GTP to displace mant-GDP”, the IC50 was 620 nM.

Source of the values: US11352370B2, “Mutant KRAS inhibitors” (H. LEE MOFFITT CANCER CENTER AND RESEARCH INSTITUTE, INC., priority 2015, dated 2022).
